Assay results published in DBAASP.
Converted amounts (≈) assume the structure as drawn.

Legend:
Assay in all cases: ≥ marks a high value that may be exact or a test limit, other limits are often not marked, values filed in µg/mL are converted to µM
[1] = tested on: Pseudomonas aeruginosa CCARM 2163
[2] = tested on: Staphylococcus aureus CCARM 3089
[3] = tested on: Pseudomonas aeruginosa KCTC 2004
[4] = tested on: Acinetobacter baumannii CCARM 12037
[5] = tested on: Escherichia coli KCTC 2571
[6] = tested on: Staphylococcus aureus CCARM 3090
[7] = tested on: Staphylococcus aureus KCTC 1916
[8] = tested on: Pseudomonas aeruginosa CCARM 2003
[9] = tested on: Salmonella typhimurium CCARM 8007
[10] = tested on: Pseudomonas aeruginosa KCTC 1637
[11] = tested on: Staphylococcus aureus CCARM 3108
[12] = tested on: Staphylococcus aureus CCARM 3114
[13] = tested on: Bacillus subtilis KCTC 1021
[14] = tested on: Acinetobacter baumannii CCARM 12035
[15] = tested on: Staphylococcus aureus CCARM 3126
[16] = tested on: Salmonella typhimurium KCTC 1926
[17] = tested on: Pseudomonas aeruginosa CCARM 2002
[18] = tested on: Escherichia coli CCARM 1238
[19] = tested on: Escherichia coli CCARM 1229
[20] = tested on: Acinetobacter baumannii CCARM 12005
[21] = tested on: Bacillus subtilis KCTC 1022
[22] = tested on: Staphylococcus aureus KCTC 3881
[23] = tested on: Staphylococcus epidermidis KCTC 1917
[24] = tested on: Pseudomonas aeruginosa KCTC 2513
[25] = tested on: Acinetobacter baumannii CCARM 12036
[26] = tested on: Pseudomonas aeruginosa CCARM 2095
[27] = tested on: Escherichia coli KCTC 1682
[28] = tested on: Staphylococcus aureus KCTC 1621
[29] = tested on: Bacillus subtilis KCTC 3068
[30] = tested on: Escherichia coli KCTC 2593
[31] = tested on: Salmonella typhimurium CCARM 8009
[32] = tested on: Salmonella typhimurium CCARM 8003
[33] = tested on: Pseudomonas aeruginosa ATCC 27853
[34] = tested on: Escherichia coli ATCC 25922
[35] = tested on: Xanthomonas axonopodis pv. glycines ISBF 327
[36] = tested on: Candida albicans ATCC 200955
[37] = tested on: Enterococcus faecium ATCC 700221
[38] = tested on: Staphylococcus aureus ATCC 33591
[39] = tested on: Staphylococcus epidermidis ATCC 12228
[40] = tested on: Staphylococcus aureus ATCC 25923
[41] = tested on: Salmonella enterica subsp. enterica serovar Typhi DMST 22842

| MIC [1] [µM] | MIC [2] [µM] | MIC [3] [µM] | MIC [4] [µM] | MIC [5] [µM] | MIC [6] [µM] | MIC [7] [µM] | MIC [8] [µM] | MIC [9] [µM] | MIC [10] [µM] | MIC [11] [µM] | MIC [12] [µM] | MIC [13] [µM] | MIC [14] [µM] | MIC [15] [µM] | MIC [16] [µM] | MIC [17] [µM] | MIC [18] [µM] | MIC [33] [µM] | MIC [34] [µM] | Compound | other results |
| --- | --- | --- | --- | --- | --- | --- | --- | --- | --- | --- | --- | --- | --- | --- | --- | --- | --- | --- | --- | --- | --- |
| 4 (≈ 9.98 µg/mL) | 16 (≈ 39.9 µg/mL) | 8 (≈ 20 µg/mL) | 4 (≈ 9.98 µg/mL) | 2 (≈ 4.99 µg/mL) | 16 (≈ 39.9 µg/mL) | 1 (≈ 2.5 µg/mL) | 4 (≈ 9.98 µg/mL) | 16 (≈ 39.9 µg/mL) | 4 (≈ 9.98 µg/mL) | 16 (≈ 39.9 µg/mL) | 16 (≈ 39.9 µg/mL) | 8 (≈ 20 µg/mL) | 4 (≈ 9.98 µg/mL) | 16 (≈ 39.9 µg/mL) | 16 (≈ 39.9 µg/mL) | 4 (≈ 9.98 µg/mL) | 16 (≈ 39.9 µg/mL) |  |  | CC[C@H](C)[C@H](NC(=O)CNC(=O)[C@H](CCCN=C(N)N)NC(=O)[C@H](Cc1ccccc1)NC(=O)[C@@H](NC(=O)[C@H](Cc1cnc[nH]1)NC(=O)[C@H](Cc1cnc[nH]1)NC(=O)[C@H](C)NC(=O)[C@@H](N)Cc1ccccc1)[C@@H](C)CC)C(=O)N[C@H](C(=O)N[C@@H](Cc1cnc[nH]1)C(=O)N[C@H](C(=O)NCC(=O)N[C@@H](CCCCN)C(=O)N[C@H](C(=O)N[C@H](C(=O)N[C@@H](Cc1cnc[nH]1)C(=O)N[C@@H](CCCN=C(N)N)C(=O)N[C@@H](CC(C)C)C(=O)N[C@H](C(=O)N[C@H](C(=O)NCC(=O)O)[C@@H](C)O)C(C)C)[C@@H](C)CC)[C@@H](C)O)C(C)C)C(C)C [FAHHIFRGIVHVGKTIHRLVTG] | MIC [19]: 16 µM (≈ 39.9 µg/mL); MIC [20]: 4 µM (≈ 9.98 µg/mL); MIC [21]: 1 µM (≈ 2.5 µg/mL); MIC [22]: 2 µM (≈ 4.99 µg/mL); MIC [23]: 2 µM (≈ 4.99 µg/mL); MIC [24]: 8 µM (≈ 20 µg/mL); MIC [25]: 4 µM (≈ 9.98 µg/mL); MIC [26]: 4 µM (≈ 9.98 µg/mL); MIC [27]: 2 µM (≈ 4.99 µg/mL); MIC [28]: 4 µM (≈ 9.98 µg/mL); MIC [29]: 4 µM (≈ 9.98 µg/mL); MIC [30]: 2 µM (≈ 4.99 µg/mL); MIC [31]: 16 µM (≈ 39.9 µg/mL); MIC [32]: ≥ 32 µM |
| 2 (≈ 5.16 µg/mL) | 8 (≈ 20.7 µg/mL) | 8 (≈ 20.7 µg/mL) | 2 (≈ 5.16 µg/mL) | 4 (≈ 10.3 µg/mL) | 8 (≈ 20.7 µg/mL) | 4 (≈ 10.3 µg/mL) | 2 (≈ 5.16 µg/mL) | 8 (≈ 20.7 µg/mL) | 1 (≈ 2.58 µg/mL) | 8 (≈ 20.7 µg/mL) | 8 (≈ 20.7 µg/mL) | 8 (≈ 20.7 µg/mL) | 2 (≈ 5.16 µg/mL) | 8 (≈ 20.7 µg/mL) | 2 (≈ 5.16 µg/mL) | 2 (≈ 5.16 µg/mL) | 8 (≈ 20.7 µg/mL) |  |  | CC[C@H](C)[C@H](NC(=O)CNC(=O)[C@H](CCCN=C(N)N)NC(=O)[C@H](Cc1ccccc1)NC(=O)[C@@H](NC(=O)[C@H](Cc1cnc[nH]1)NC(=O)[C@H](Cc1cnc[nH]1)NC(=O)[C@H](CCCCN)NC(=O)[C@@H](N)Cc1ccccc1)[C@@H](C)CC)C(=O)N[C@@H](CCCCN)C(=O)N[C@@H](Cc1cnc[nH]1)C(=O)N[C@H](C(=O)NCC(=O)N[C@@H](CCCCN)C(=O)N[C@H](C(=O)N[C@H](C(=O)N[C@@H](Cc1cnc[nH]1)C(=O)N[C@@H](CCCN=C(N)N)C(=O)N[C@@H](CC(C)C)C(=O)N[C@H](C(=O)N[C@H](C(=O)NCC(=O)O)[C@@H](C)O)C(C)C)[C@@H](C)CC)[C@@H](C)O)C(C)C [FKHHIFRGIKHVGKTIHRLVTG] | MIC [19]: 8 µM (≈ 20.7 µg/mL); MIC [20]: 2 µM (≈ 5.16 µg/mL); MIC [21]: 4 µM (≈ 10.3 µg/mL); MIC [22]: 4 µM (≈ 10.3 µg/mL); MIC [23]: 4 µM (≈ 10.3 µg/mL); MIC [24]: 8 µM (≈ 20.7 µg/mL); MIC [25]: 2 µM (≈ 5.16 µg/mL); MIC [26]: 2 µM (≈ 5.16 µg/mL); MIC [27]: 1 µM (≈ 2.58 µg/mL); MIC [28]: 2 µM (≈ 5.16 µg/mL); MIC [29]: 2 µM (≈ 5.16 µg/mL); MIC [30]: 4 µM (≈ 10.3 µg/mL); MIC [31]: 8 µM (≈ 20.7 µg/mL); MIC [32]: 16 µM (≈ 41.3 µg/mL) |
|  |  |  |  |  |  |  |  |  |  |  |  |  |  |  |  |  |  | 80 (≈ 254 µg/mL) | 40 (≈ 127 µg/mL) | CSCC[C@H](NC(=O)[C@H](Cc1ccccc1)NC(=O)CNC(=O)[C@H](Cc1ccccc1)NC(=O)[C@H](C)NC(=O)[C@H](CCCN=C(N)N)NC(=O)[C@H](CC(N)=O)NC(=O)[C@H](Cc1ccccc1)NC(=O)[C@H](CC(=O)O)NC(=O)[C@H](CCCCN)NC(=O)[C@H](Cc1ccccc1)NC(=O)[C@H](Cc1cnc[nH]1)NC(=O)[C@H](Cc1ccccc1)NC(=O)[C@H](CCC(N)=O)NC(=O)[C@H](CCCCN)NC(=O)[C@@H](N)Cc1ccccc1)C(=O)N[C@H](C(=O)N[C@@H](CCCN=C(N)N)C(=O)N[C@H](C(=O)N[C@@H](C)C(=O)N[C@@H](CC(C)C)C(=O)N[C@@H](CCC(N)=O)C(=O)N[C@@H](C)C(=O)N[C@@H](CCC(=O)O)C(=O)N[C@@H](CCCCN)C(=O)N[C@@H](CC(C)C)C(N)=O)C(C)C)[C@@H](C)O [FKQFHFKDFNRAFGFMTRVALQAEKL] | MIC [35]: ≥ 40 µM |
|  |  |  |  |  |  |  |  |  |  |  |  |  |  |  |  |  |  | 256 (≈ 315 µg/mL) | 22.1 (≈ 27.2 µg/mL) | CC[C@H](C)[C@H](NC(=O)[C@H](Cc1ccccc1)NC(=O)[C@H](CCCCN)NC(=O)[C@H](CC(C)C)NC(=O)[C@H](CC(C)C)NC(=O)CN)C(=O)N[C@@H](CCCCN)C(=O)N[C@@H](Cc1c[nH]c2ccccc12)C(=O)N[C@@H](CC(C)C)C(=O)N[C@@H](CC(C)C)C(N)=O [GLLKFIKWLL] | MIC [36]: ≥ 47.4 µM; MIC [37]: 0.8 µM (≈ 0.984 µg/mL); MIC [38]: 7.4 µM (≈ 9.1 µg/mL) |
|  |  |  |  |  |  |  |  |  |  |  |  |  |  |  |  |  |  | 28.4 (≈ 34.4 µg/mL) | 12.5 (≈ 15.1 µg/mL) | CC[C@H](C)[C@H](NC(=O)[C@H](CCCCN)NC(=O)[C@H](CCCCN)NC(=O)[C@H](CC(C)C)NC(=O)[C@H](CC(C)C)NC(=O)CN)C(=O)N[C@@H](CCCCN)C(=O)N[C@@H](Cc1c[nH]c2ccccc12)C(=O)N[C@@H](CC(C)C)C(=O)N[C@@H](CC(C)C)C(N)=O [GLLKKIKWLL] | MIC [36]: ≥ 47.4 µM; MIC [37]: 22.1 µM (≈ 26.8 µg/mL); MIC [38]: 28.4 µM (≈ 34.4 µg/mL) |
|  |  |  |  |  |  |  |  |  |  |  |  |  |  |  |  |  |  | > 31.2 | > 31.2 | CC(C)[C@H](NC(=O)CNC(=O)[C@@H](N)CC(N)=O)C(=O)N[C@@H](CCC(N)=O)C(=O)N1CCC[C@H]1C(=O)N[C@@H](CCCCN)C(=O)N[C@@H](Cc1ccc(O)cc1)C(=O)N[C@@H](CCCN=C(N)N)C(=O)N[C@@H](Cc1c[nH]c2ccccc12)C(=O)N[C@@H](Cc1c[nH]c2ccccc12)C(=O)N[C@@H](CCCN=C(N)N)C(=O)N[C@@H](Cc1c[nH]c2ccccc12)C(=O)N[C@@H](Cc1c[nH]c2ccccc12)C(=O)N[C@@H](CCCN=C(N)N)C(=O)N[C@@H](CCCN=C(N)N)C(=O)N[C@@H](Cc1c[nH]c2ccccc12)C(=O)N[C@@H](Cc1c[nH]c2ccccc12)C(=O)N[C@@H](Cc1c[nH]c2ccccc12)C(=O)N[C@@H](Cc1c[nH]c2ccccc12)C(N)=O [NGVQPKYRWWRWWRRWWWW] | MIC [39]: 31.2 µM (≈ 91 µg/mL); MIC [40]: > 31.2 µM; MIC [41]: 31.2 µM (≈ 91 µg/mL) |
